Experimental findings from patent publication US20210121419A1, “METFORMIN COMPOUNDED COMPOSITION AND METHOD THEREOF” (ZHOUSHAN TRITECH BIOSCIENCES, INC., priority 2018, published 2021) are described below.

The test system of this series is enteric microorganism. Description: Low dose metformin usage in a large population. The format is in vivo, human. Particulars: low dose 0.125-0.25 g/day. An excerpt:
One of the new discoveries of the present disclosure is the important health effect of low dose metformin. The normal dosage of metformin in Chinese population is 1-2 g per day, and the dose for the anti-aging clinical trial in the US is 1.7 g per day. It is known that one of the functions of metformin in regulating human health is through regulating enteric microorganism, whereas an unexpected discovery of the present disclosure is that low dose metformin (0.1-0.5 g/day, prefer for 0.125-0.25 g/day) can also promote health through regulating enteric microorganism. The application of low dose metformin can avoid long-term application caused side effects such as hypoglycemia, lactic acidosis, and hepatic and renal toxicity when normal dosage is used.

With `CN(C)C(=N)N=C(N)N` [metformin, 1,1-Dimethylbiguanide], the “time until stool returned to normal” value lay within 4 to 5 days. For the setting “2-3 days after usage”, the stool effect result was “mild diarrhea”.
